Experimental data: patent US20060167091A1, “Acaricide” (priority 2003, published 2006)

Test system: Two-spotted spider mites
Test: Miticidal test on two-spotted spider mites
Format: in vivo, Tetranychus urticae Koch
Settings: Tetranychus urticae, 48 h, 2 days after spraying, read-out: Mortality rate
From the text: Two-spotted spider mites from the Nagano prefecture, which are poorly sensitive to chemicals, were used as mite specimens. Preparation A and Preparation B were used as chemical specimens.
A plastic cup (trade name: KP-120, manufactured by Kohnoike plastic Co., Ltd.) was filled with tap water, and the plastic cup was covered with a lid having an incision therein. A piece of non-woven fabric (4.5×5.5 cm) was cut for about 4 cm parallel to its longer side 1 cm from the edge. The portion hanging loose was suspended inside the plastic cup through the incision. A kidney bean leaf (about 3.5×4.5 cm) was placed on the sufficiently soaked, non-woven fabric. Twenty female adults of two-spotted spider mites were released into each cup.
Preparation A and Preparation B each diluted with tap water to specific concentrations were mixed, and the mixture was sprayed in a volume of 2 ml using a spray tower (Potter Spray Tower, manufactured by Burkard Manufacturing Co. Ltd, at a spraying pressure of 5 lb/inch). The kidney bean leaf was placed in a thermostatic chamber having a temperature of 25±2° C. and a humidity of 60%. The numbers of live and dead mites were counted 2 days later. The mortality rate was calculated using the equation provided below.
For comparison, mortality rates were calculated in the same manner as above except that Formulation A and Formulation B each diluted with tap water to specific concentrations were used one without each other. Mortality rate=(1−V/W)×100 where V is the survival rate in the treated area, and W is the survival rate in the untreated area.
Furthermore, the effectiveness (E) anticipated from the miticide of the present invention was calculated using the Colby equation (Weeds 15, 20-22 (1967)) to obtain a mathematical effectiveness (%): E=x+y−(x·y/100) where E is the effectiveness expressed in % anticipated from Compound A and chlorfenapyr when used at concentrations of p and q, respectively; x is the effectiveness of Compound A when used at a concentration of p; and y is the effectiveness of chlorfenapyr when used at a concentration of q.

COCCOC(=O)C(C#N)(C(=O)c1ccccc1C(F)(F)F)c1ccc(C(C)(C)C)cc1 (stereo not shown) [Compound A, methoxyethyl 2-(4-tert-butylphenyl)-2-(2-trifluoromethylbenzoyl)cyanoacetate] gave a mortality at 12.5 ppm (Compound A 12.5 ppm alone (chlorfenapyr 0 ppm), female adults on kidney bean leaf) of 19%, a mortality at 25 ppm (Compound A 25 ppm alone (chlorfenapyr 0 ppm)) of 45% and a mortality at 50 ppm (Compound A 50 ppm alone (chlorfenapyr 0 ppm)) of 48%. For the same molecule, the mortality at 100 ppm (Compound A 100 ppm alone (chlorfenapyr 0 ppm)) was 25% and the mortality at 200 ppm (Compound A 200 ppm alone (chlorfenapyr 0 ppm)) was 66%.

CCOCn1c(-c2ccc(Cl)cc2)c(C#N)c(Br)c1C(F)(F)F [chlorfenapyr, 4-bromo-2-(4-chlorophenyl)-1-ethoxymethyl-5-trifluoromethylpyrrole-3-carbonitrile] gave a mortality at 0.4 ppm (chlorfenapyr 0.4 ppm alone (Compound A 0 ppm)) of 0%, a mortality at 1 ppm (chlorfenapyr 1 ppm alone (Compound A 0 ppm)) of 0% and a mortality at 2 ppm (chlorfenapyr 2 ppm alone (Compound A 0 ppm)) of 0%. The mortality at 5 ppm (chlorfenapyr 5 ppm alone (Compound A 0 ppm)) was 0% and the mortality at 10 ppm (chlorfenapyr 10 ppm alone (Compound A 0 ppm)) was 84%.
